“And” between values parts separate entries of the source, which are not always exact repeats. Equal values may be shown once. Read-outs that look alike come from different tables or passages of the source.
Legend:
[1] = test system: Rat AMPA receptors; assay: AMPA-evoked currents, Xenopus laevis oocytes injected with rat cortex poly(A+) mRNA (two-electrode voltage clamp); assay type: cell-based; settings: geometric mean
Description: (§1) Compounds were tested by bath application.

[2] = test system: Human AMPA receptors; assay: AMPA-evoked currents, Xenopus laevis oocytes injected with human hippocampal poly(A+) mRNA; assay type: cell-based; settings: geometric mean
Description: as §1

[3] = molecular target: AMPA/Kainate chimera GluA1(K2NTD) (Homo sapiens, UniProt P42261+Q13002); assay: Glutamate-evoked current in oocytes expressing AMPA/Kainate chimera; assay type: cell-based
Chain of AMPA/Kainate chimera GluA1(K2NTD) (Q13002+P42261 fused, change not shown): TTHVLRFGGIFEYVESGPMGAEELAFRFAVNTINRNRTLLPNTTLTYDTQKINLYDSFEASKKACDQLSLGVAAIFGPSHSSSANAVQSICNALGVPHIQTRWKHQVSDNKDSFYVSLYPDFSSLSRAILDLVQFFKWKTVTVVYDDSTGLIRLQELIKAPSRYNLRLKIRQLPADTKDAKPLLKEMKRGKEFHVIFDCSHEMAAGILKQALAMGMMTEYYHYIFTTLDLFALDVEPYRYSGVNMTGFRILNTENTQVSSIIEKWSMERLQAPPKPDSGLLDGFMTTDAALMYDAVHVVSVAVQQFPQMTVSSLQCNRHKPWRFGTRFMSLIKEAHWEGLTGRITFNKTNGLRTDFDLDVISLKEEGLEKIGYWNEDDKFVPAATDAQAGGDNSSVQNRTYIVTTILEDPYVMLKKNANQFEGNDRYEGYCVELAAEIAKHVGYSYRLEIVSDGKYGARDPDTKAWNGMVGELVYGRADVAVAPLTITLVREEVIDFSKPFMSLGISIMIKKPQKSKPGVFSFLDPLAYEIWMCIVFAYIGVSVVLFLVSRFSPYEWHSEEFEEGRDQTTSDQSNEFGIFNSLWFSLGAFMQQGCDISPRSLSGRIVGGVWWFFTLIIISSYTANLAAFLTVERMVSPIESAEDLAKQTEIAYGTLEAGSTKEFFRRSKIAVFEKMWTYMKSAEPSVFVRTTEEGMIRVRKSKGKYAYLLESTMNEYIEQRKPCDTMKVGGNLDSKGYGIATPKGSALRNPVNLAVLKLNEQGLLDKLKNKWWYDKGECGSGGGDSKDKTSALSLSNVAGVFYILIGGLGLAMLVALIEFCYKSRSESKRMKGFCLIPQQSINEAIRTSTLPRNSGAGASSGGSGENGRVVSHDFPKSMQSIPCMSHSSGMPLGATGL
Description: as §1

[4] = test system: Male Wistar rats; assay: Functional observation battery in rats (Irwin); assay type: in vivo, rat
Description: Any effects on body temperature were also assessed. Methods were adapted from those described by Irwin, 1968 for detecting behavioural effects in mice.
Male Wistar rats (Depré breeding centre, France), 6 weeks of age (160.0–190.6 g) on the day of randomisation were used. On the day of the test, animals were first scored using the Irwin standardised observation battery, and the body temperature was measured to establish baseline measurements. Groups of rats were then orally treated with S 47445 (50, 200, 500 and 1000 mg/kg) or its vehicle or clonidine, a reference item (3 mg/kg in water). The Irwin scores as well as measurement of body temperature were performed again at 1, 2, 4, 6 and 24 hours after administration of S 47445. Individual observation data were presented as a score attributed to each behavioural sign (intensity and relevance). For observations with absence or presence, the number of animals with the sign was provided per group. For other observations, the median value for each sign per time was presented per group. For body temperature, data were expressed as variations from predose values. […] The treatment effect on body temperature was analysed using one way ANOVA followed by Newman-Keul’s post hoc test. […]

[5] = set-up: method as in previous kinetic experiments (reference not given); settings: 0.3 mg/kg oral, rats; ref previous kinetic experiments (reference not given); read-out: Cerebral Cmax; cited from earlier work
[6] = set-up: method as in previous kinetic experiments (reference not given); settings: 0.3 mg/kg oral, mice; ref previous kinetic experiments (reference not given); read-out: Cerebral Cmax; cited from earlier work
[7] = test system: Y (non-selective); assay: Binding assay, [3H]NPY
[8] = test system: GABA (non-selective); assay: Binding assay, [3H]GABA
[9] = test system: α2 (non-selective); assay: Binding assay, [3H]RX 821002
[10] = molecular target: Estrogen a (h) (ERa) (Homo sapiens, UniProt P03372); assay: Binding assay, fluormone ES2
Chain of Estrogen a (h) (ERa) (P03372 whole entry): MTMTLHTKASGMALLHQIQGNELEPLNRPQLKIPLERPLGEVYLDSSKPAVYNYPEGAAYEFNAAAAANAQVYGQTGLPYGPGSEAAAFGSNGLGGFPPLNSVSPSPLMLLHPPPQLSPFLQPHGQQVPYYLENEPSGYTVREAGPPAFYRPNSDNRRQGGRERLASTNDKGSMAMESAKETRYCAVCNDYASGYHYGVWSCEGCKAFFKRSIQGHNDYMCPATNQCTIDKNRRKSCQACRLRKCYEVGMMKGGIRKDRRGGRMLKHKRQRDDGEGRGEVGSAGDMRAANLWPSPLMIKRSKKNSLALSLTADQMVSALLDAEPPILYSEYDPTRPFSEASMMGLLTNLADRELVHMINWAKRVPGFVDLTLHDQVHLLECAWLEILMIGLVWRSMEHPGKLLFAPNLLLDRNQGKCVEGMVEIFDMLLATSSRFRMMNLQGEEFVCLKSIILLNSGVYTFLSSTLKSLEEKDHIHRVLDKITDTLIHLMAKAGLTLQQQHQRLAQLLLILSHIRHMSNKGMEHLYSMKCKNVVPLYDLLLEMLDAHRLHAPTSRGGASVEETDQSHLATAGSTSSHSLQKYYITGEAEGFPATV

[11] = test system: Ca2+ channel (L, DHP site); assay: Binding assay, [3H](+)PN 200-110
[12] = test system: PDE4 (h); assay: Enzyme and cell-based assay, [3H]cAMP + cAMP (1 μM)
[13] = test system: PDE3 (h); assay: Enzyme and cell-based assay, [3H]cAMP + cAMP (0.1 μM)
[14] = test system: Phospholipase A2; assay: Enzyme and cell-based assay, [3H]phosphatidylethanolamine
[15] = molecular target: human GluK2 kainate receptors (Homo sapiens, UniProt Q13002); assay: Glutamate-evoked current in oocytes expressing kainate receptors; settings: up to 100 μM; n = 12
Chain of human GluK2 kainate receptors (Q13002 32-908): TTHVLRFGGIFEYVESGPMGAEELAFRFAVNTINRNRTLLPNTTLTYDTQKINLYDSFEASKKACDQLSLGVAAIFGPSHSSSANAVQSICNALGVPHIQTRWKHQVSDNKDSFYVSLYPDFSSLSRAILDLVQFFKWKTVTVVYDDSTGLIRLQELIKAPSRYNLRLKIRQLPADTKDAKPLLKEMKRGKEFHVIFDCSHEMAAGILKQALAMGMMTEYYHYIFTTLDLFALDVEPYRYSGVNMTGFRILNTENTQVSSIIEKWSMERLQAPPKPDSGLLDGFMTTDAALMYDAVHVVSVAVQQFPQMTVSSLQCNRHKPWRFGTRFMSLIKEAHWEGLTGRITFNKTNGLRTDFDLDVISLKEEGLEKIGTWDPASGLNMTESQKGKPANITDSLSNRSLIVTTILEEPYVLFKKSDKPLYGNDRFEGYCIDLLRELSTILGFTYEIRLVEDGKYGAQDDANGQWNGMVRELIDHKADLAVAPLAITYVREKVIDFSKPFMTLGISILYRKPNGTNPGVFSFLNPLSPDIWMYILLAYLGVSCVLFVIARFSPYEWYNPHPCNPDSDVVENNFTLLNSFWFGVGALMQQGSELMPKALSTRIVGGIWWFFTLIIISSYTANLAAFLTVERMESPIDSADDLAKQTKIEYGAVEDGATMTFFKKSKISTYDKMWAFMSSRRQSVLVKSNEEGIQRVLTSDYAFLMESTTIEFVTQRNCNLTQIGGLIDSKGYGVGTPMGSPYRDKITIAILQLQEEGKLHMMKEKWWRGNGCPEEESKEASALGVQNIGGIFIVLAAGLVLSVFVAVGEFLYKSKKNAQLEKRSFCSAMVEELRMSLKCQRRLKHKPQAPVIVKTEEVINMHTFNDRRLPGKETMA

[16] = molecular target: AMPA/Kainate chimerae GluA1(K2S1) (Homo sapiens, UniProt P42261, A392I/A426D/A443L/A444R/A447S/A473Q/A536S/C542Y/D385S/D386Q/D417E/D470A/D533N/DEL395-402/E430Y/E441D/E457R/E501K/E538D/F388G/F429L/F545L/G479R/G484H/H449I/I446L/I458L/I518Y/I548L/INS382DPASGLNM/INS391N/INS555VIA/K448T/K472G/K519R/K523G/K525N/L422F/L456I/L497Y/M421L/M517L/N383T/N425S/N427K/P469D/Q405S/Q428P/Q522N/R455E/R467Q/R485K/S453T/S460E/S511T/S524T/T408S/T471N/T494A/V389K/V404L/V440I/V450L/V482I/V488L/V544L/V552C/Y381T/Y409L/Y435F/Y452F/Y483D/Y537P); assay: Glutamate-evoked current in oocytes expressing AMPA/Kainate chimera; settings: n = 5
Chain of AMPA/Kainate chimerae GluA1(K2S1) (P42261 with tags, fused parts or gaps with the stated changes): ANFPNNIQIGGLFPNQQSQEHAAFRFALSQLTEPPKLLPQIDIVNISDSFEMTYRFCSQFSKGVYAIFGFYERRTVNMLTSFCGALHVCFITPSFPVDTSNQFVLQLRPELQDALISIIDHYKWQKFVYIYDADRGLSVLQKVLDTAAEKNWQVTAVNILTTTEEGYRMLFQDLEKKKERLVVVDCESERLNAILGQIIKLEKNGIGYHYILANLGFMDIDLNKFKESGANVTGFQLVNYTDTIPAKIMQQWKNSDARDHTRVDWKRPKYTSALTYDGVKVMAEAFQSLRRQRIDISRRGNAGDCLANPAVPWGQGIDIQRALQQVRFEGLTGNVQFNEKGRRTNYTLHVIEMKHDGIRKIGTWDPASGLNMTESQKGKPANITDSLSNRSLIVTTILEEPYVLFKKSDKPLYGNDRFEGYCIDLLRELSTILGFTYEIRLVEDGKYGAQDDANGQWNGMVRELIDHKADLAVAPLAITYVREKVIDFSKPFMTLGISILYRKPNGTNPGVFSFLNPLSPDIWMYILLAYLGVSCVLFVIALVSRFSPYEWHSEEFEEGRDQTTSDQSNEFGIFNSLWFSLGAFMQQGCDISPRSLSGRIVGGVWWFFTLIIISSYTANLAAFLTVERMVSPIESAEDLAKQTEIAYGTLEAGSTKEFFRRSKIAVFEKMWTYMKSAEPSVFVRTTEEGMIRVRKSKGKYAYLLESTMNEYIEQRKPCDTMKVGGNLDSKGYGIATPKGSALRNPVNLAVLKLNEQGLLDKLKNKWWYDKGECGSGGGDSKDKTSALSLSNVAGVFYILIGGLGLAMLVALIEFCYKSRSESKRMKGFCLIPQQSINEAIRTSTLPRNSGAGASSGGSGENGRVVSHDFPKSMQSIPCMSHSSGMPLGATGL

[17] = concentration giving a two-fold increase in current amplitude
[18] = potentiation of 10 μM AMPA-evoked current

SMILES: O=C1c2cc3nnn(CCc4cccc(F)c4)c(=O)c3cc2OCN1C1CC1 [S 47445, 8-cyclopropyl-3-[2-(3-fluorophenyl)ethyl]-7,8-dihydro-3H-[1,3]oxazino[6,5-g][1,2,3]benzotriazine-4,9-dione]
- EC2X [1, 17]: 1.53 µM
- EC50 [1, 18]: 6.5 µM and 6.54 µM
- EC2X [2, 17]: 4.77 µM
- EC50 [2, 18]: 7.08 µM
- EC50 [3]: 4.2 µM
- Body temperature and behavior ([4]; 50, 200, 500 and 1000 mg/kg oral acute): no significant effect
- Spontaneous epileptic seizures ([4]; up to 1000 mg/kg p.o.): No occurrence
- Cmax [5]: 100 to 200 nM
- Cmax [6]: 100 to 200 nM
- % Inhibition of control specific binding ([7]; S 47445 1.0E-05 M): -6%
- % Inhibition of control specific binding ([7]; S 47445 1.0E-07 M): -4%
- % Inhibition of control specific binding ([8]; S 47445 1.0E-05 M): 7%
- % Inhibition of control specific binding ([8]; S 47445 1.0E-07 M): 4%
- % Inhibition of control specific binding ([9]; S 47445 1.0E-05 M): -5%
- % Inhibition of control specific binding ([9]; S 47445 1.0E-07 M): -2%
- % Inhibition of control specific binding ([10]; S 47445 1.0E-05 M): 5%
- % Inhibition of control specific binding ([10]; S 47445 1.0E-07 M): 4%
- % Inhibition of control specific binding ([11]; S 47445 1.0E-05 M): 1%
- % Inhibition of control specific binding ([11]; S 47445 1.0E-07 M): -16%
- % Inhibition of control specific binding ([12]; S 47445 1.0E-05 M): -12%
- % Inhibition of control specific binding ([12]; S 47445 1.0E-07 M): 20%
- % Inhibition of control specific binding ([13]; S 47445 1.0E-05 M): -5%
- % Inhibition of control specific binding ([13]; S 47445 1.0E-07 M): 0%
- % Inhibition of control specific binding ([14]; S 47445 1.0E-05 M): -4%
- % Inhibition of control specific binding ([14]; S 47445 1.0E-07 M): 0%
- Effect on glutamate-evoked current [15]: did not modify glutamate-evoked current
- Potentiating effect on glutamate-evoked current [16]: lost
